{"source": "patent US20150230474A1", "about": "“Use of Glyphosate to Control Clubroot Disease” (priority 2014, published 2015)", "key": {"Plasmodiophora brassicae [1]": {"tested_on": "Plasmodiophora brassicae", "assay": "Pre-seeding treatment of P. brassicae infested potting mix, VT500G canola then sown", "type": "in vivo", "conditions": "for plant growth / foliar symptoms of clubroot disease: 35 days post seeding; for early senescence: 60 days post seeding", "procedure": "(§1) An isolate of clubroot pathogen Plasmodiophora brassicae was obtained from infested canola fields in central Alberta. The pathogen population from this collection may represent a mixture of pathotypes, but pathotype 3 is expected to be predominant (Peng et al., 2011). The inoculum was propagated using a susceptible canola cv. Westar grown in the infested soil with spores. Fresh clubroot galls were harvested, air dried, and stored at 4° C., and were further used for fresh inoculum preparation. To extract spores, 2-5 g of air-dried galls were soaked in distilled water for a few hours to soften the tissues and then ground in a mortar with pestle. The resulting slurry was filtered through three layers of cheesecloth and the spore concentration was estimated under a microscope. Inoculum concentration of 1.0·10^7 resting spores/ml was used for inoculation.\n(§2) Canola plants, cultivar Westar and the Roundup®-resistant transgenic line VT500G of Brassica napus, were used. Plants were grown in a phytotron at 22° C. with a light/dark photoperiod of 16 h/8 h (light intensity 120 μmol m^−2 s^−1).\n(§3) Potting mix consisting of fine peat moss, vermiculite, gypsum, dolomitic limestone and starter nutrient (Sunshine Mix #3; pH 5.8-6.2; Sun Gro Horticulture Canada Ltd., Canada) in 13 cm diameter plastic pots was inoculated with P. brassicae spores. The P. brassicae infested potting soil was then irrigated with 350 ml of water or glyphosate (Roundup®, Monsanto Canada Inc.) solution to provide an application rate of 0 mg, 143, 286, or 572 mg of glyphosate per 13 cm pot containing 750 cm3 of potting mix. VT500G canola seeds were subsequently sown on the treated potting mix and allowed to grow at 22° C. with a light/dark photoperiod of 16 h/8 h for 65 days. Plant growth and clubroot symptom development were monitored over the incubation time course."}, "Plasmodiophora brassicae [2]": {"tested_on": "Plasmodiophora brassicae", "assay": "Treatment of canola seedlings: potting mix irrigated with glyphosate solution, then inoculated with P. brassicae spores", "type": "in vivo", "conditions": "572 mg/pot glyphosate, 15 days post-inoculation, VT500G canola", "procedure": "as §1\nCanola plants, cultivar Westar and the glyphosate-resistant transgenic line VT500G of Brassica napus, were used. Plants were grown in a phytotron at 22° C. with a light/dark photoperiod of 16 h/8 h (light intensity 120 μmol m^−2 s^−1). […]"}, "VT500G canola plants": {"tested_on": "VT500G canola plants", "assay": "Growth impediment of canola seedlings after pre-seeding glyphosate treatment of potting mix", "type": "in vivo, Brassica napus", "procedure": "as §2, §3"}}, "note": "“Also recorded” adds a separate entry of the source."}
{"smiles": "O=C(O)CNCP(=O)(O)O", "note": "[glyphosate, N-(phosphonomethyl)glycine]", "values": [{"measurement": "plant growth / foliar symptoms of clubroot disease", "setting": "Plasmodiophora brassicae [1]; 143 mg/pot", "value": "normal growth"}, {"measurement": "early senescence", "setting": "Plasmodiophora brassicae [1]; 143 mg/pot", "value": "appeared less affected, albeit with some signs of early senescence; also recorded: showed an early senescence"}, {"measurement": "silique/seed production", "setting": "Plasmodiophora brassicae [1]; 143 mg/pot, 65 days post seeding", "value": "Abortions of silique development were frequently observed"}, {"measurement": "plant growth / foliar symptoms of clubroot disease", "setting": "Plasmodiophora brassicae [1]; 286 mg/pot", "value": "normal growth"}, {"measurement": "early senescence", "setting": "Plasmodiophora brassicae [1]; 286 mg/pot", "value": "did not display early senescence"}, {"measurement": "silique/seed production", "setting": "Plasmodiophora brassicae [1]; 286 mg/pot, 65 days post seeding", "value": "normal silique/seed production"}, {"measurement": "plant growth / foliar symptoms of clubroot disease", "setting": "Plasmodiophora brassicae [1]; 572 mg/pot", "value": "normal growth"}, {"measurement": "early senescence", "setting": "Plasmodiophora brassicae [1]; 572 mg/pot", "value": "did not display early senescence"}, {"measurement": "silique/seed production", "setting": "Plasmodiophora brassicae [1]; 572 mg/pot, 65 days post seeding", "value": "normal silique/seed production"}, {"measurement": "plant survival", "setting": "Plasmodiophora brassicae [1]; all glyphosate treatments (143, 286, 572 mg/pot), 65 days post seeding", "value": "all glyphosate treated plants had survived"}, {"measurement": "incidence of clubroot disease", "setting": "Plasmodiophora brassicae [1]; drench application of glyphosate pesticide solution to inoculated potting mix, glyphosate-resistant canola", "value": "reduced the incidence of clubroot disease"}, {"measurement": "clubroot development in the root system", "setting": "Plasmodiophora brassicae [2]", "value": "prevented visible clubroot development"}, {"measurement": "chlorosis of leaves", "setting": "VT500G canola plants; 572 mg/pot, 12 days post seeding", "value": "light chlorosis on true leaves"}, {"measurement": "growth retardation", "setting": "VT500G canola plants; 572 mg/pot, 22 days post seeding", "value": "slightly retarded growth"}, {"measurement": "growth impediment of seedlings", "setting": "VT500G canola plants; glyphosate-treated seedlings, early stages", "value": "Some growth retardation; also recorded: some growth impediment"}]}
